From patent US20260137676A1 (priority 2022, published 2026)
Like-named read-outs stand apart in the source and are kept apart here.

Legend:
SD rats [1] = test: Anesthetic effect (minimum effective anesthetic dose, LORR) after single tail vein injection in rats; assay type: in vivo
Description: The dose at which the LORR first occur was determined as the minimum effective anesthetic dose. The minimum effective anesthetic dose is further classified as: A≤5 mg/kg; 5 mg/kg<B≤10 mg/kg; 10 mg/kg<C≤20 mg/kg; D>20 mg/kg in this invention.
The Up and down method was used to determine the ED50 of the compound causing the LORR. […] After observing five consecutive consistent directional changes in LORR occurrence and recovery, the ED50 was calculated using the Dixon-Mood formula. After determining the ED50, the onset time, duration of anesthesia, and emergence time of anesthesia were determined at an injection dose of 2ED50.
In the above experiments, in addition to recording the dose at which the LORR occurred, the onset time and emergence time of anesthesia, the duration of the LORR, and the duration of sedative effects could also be recorded. Meanwhile, circulatory effects experiments can be added to observe the effects of the compound on circulation and respiration in rats.

[2] = assay type: physicochemical
Description: Compound A6S (1 eq) was dissolved in Et2O (2 mL) at room temperature, and the corresponding acid (2 eq) was dissolved in Et2O (NO.1-NO.4) or MeOH (NO.5-NO.10). The above acid solution was slowly added to the reaction system containing Compound A6S using a syringe. NO.1-NO.3 was mixed and stirred at room temperature for 1 hour, and NO.5-NO.10 was mixed and stirred at room temperature for 16 hours. The mixture was filtered under suction to get the solid, then the solid was washed with Et2O, and dried to obtain the corresponding salt form of Compound A6S. Then, the solubility of each salt form was tested in ultrapure water.

[3] = Solubility determination of salt forms of the compounds (10 mg, ultrapure water added incrementally); assay type: physicochemical; conditions: 10 mg of the salt form, 25° C.±2° C., class = water volume used
Description: A weighed amount of 10 mg of the compound's salt form was placed in a vessel at 25° C.±2° C. Ultrapure water was added incrementally. The mixture was vigorously shaken for 30 seconds every 5 minutes and observed for 30 minutes. When no undissolved particles or droplets remained in the test system, the water solubility of the salt form was recorded according to the following criteria: • A: Water volume used is less than 0.1 mL; • B: Water volume used is greater than or equal to 0.1 mL and less than 1.0 mL; • C: Water volume used is greater than or equal to 1.0 mL and less than 5.0 mL.

SD rats [4] = conditions: tail vein, ratio of minimum lethal dose to minimum effective anesthetic dose
Description: SD rats were used, with a single intravenous injection via the tail vein (administration rate of 0.02 ml/s and administration volume of 0.5-1.0 ml per 100 g body weight) in the experiment. The initial dose of the test compound started at 4ED50, and the actual administration dose was calculated based on the body weight measured before the test for each animal. The increase or decrease in subsequent doses was determined based on the results of the experimental animals (whether death occurred). The dose at which death first occurred was determined as the minimum lethal dose. […] The approximate therapeutic index is further classified as: A when the index is ≥5; B when the index is <5 but ≥3; and C when the index is <3.

[5] = well-known to those skilled in the art; cited from earlier work
[6] = intravenous injection; compared to propofol; cited from earlier work
[7] = vehicle DMSO: A3 31.8%, A14 66.7%, A17 79.2%, A21S 66.7%, A23 60%, A24 82.8%, A25S 70%
[8] = vehicle Pure water, sulfate salts
[9] = vehicle DMSO: A3 31.8%, A14 66.7%, A17 79.2%, A21S 66.7%, A23 60%, A24 82.8%

COC(=O)[C@H](C)[N+]1(C)CCN(c2cc(C(C)C)c(O)c([C@H](C)C3CC3)c2)CC1 [Compound A25S]
Minimal effective anesthetic dose (SD rats [1]; [7]): D (D>20 mg/kg)

COC(=O)[C@H](C)N1CCN(c2cc(C(C)C)c(O)c([C@H](C)C3CC3)c2)CC1 [Compound A6S]
Salt formation (Yes/No) ([2]; A6S with Benzenesulfonic acid (NO.6)): Yes | Salt formation (Yes/No) ([2]; A6S with Hydrochloric acid (NO.1)): Yes | Salt formation (Yes/No) ([2]; A6S with Maleic acid (NO.8)): Yes | Salt formation (Yes/No) ([2]; A6S with Methanesulfonic acid (NO.3)): Yes | Salt formation (Yes/No) ([2]; A6S with Oxalic acid dihydrate (NO.7)): Yes | Salt formation (Yes/No) ([2]; A6S with Phosphoric acid (NO.4)): Yes | Salt formation (Yes/No) ([2]; A6S with Sulfuric acid (NO.2)): Yes | Salt formation (Yes/No) ([2]; A6S with p-Toluenesulfonic acid hydrate (NO.5)): Yes | Minimal effective anesthetic dose (SD rats [1]; [8]): B (5 mg/kg<B≤10 mg/kg) | Onset time (SD rats [1]; [8]): 0.47 to 0.73 min | Righting Reflex Duration (SD rats [1]; [8]): 1.08 to 5.67 min | Sedation Duration (SD rats [1]; [8]): 7.93 to 15.12 min

COC(=O)[C@H](C)N1CCN(c2cc(C(C)C)c(O)c(C(C)C)c2)CC1 [Compound A20S]
Minimal effective anesthetic dose (SD rats [1]; [8]): B (5 mg/kg<B≤10 mg/kg) | Onset time (SD rats [1]; [8]): 0.18 to 0.43 min | Righting Reflex Duration (SD rats [1]; [8]): 2.18 to 7.48 min | Sedation Duration (SD rats [1]; [8]): 15.75 to 23.72 min

COC(=O)CN1CC2CCC(C1)N2c1cc(C(C)C)c(O)c([C@H](C)C2CC2)c1 [Compound A12]
Solubility [3]: A (A: Water volume used is less than 0.1 mL) | Minimal effective anesthetic dose (SD rats [1]; [8]): C (10 mg/kg<C≤20 mg/kg) | Onset time (SD rats [1]; [8]): 0.50 to 0.77 min | Righting Reflex Duration (SD rats [1]; [8]): 1.22 to 7.40 min | Sedation Duration (SD rats [1]; [8]): 9.90 to 34.25 min | Approximate therapeutic index (SD rats [4]; vehicle Pure water): A (A when the index is ≥5)

CC(C)c1cc(N2CCN(CC(=O)OC(C)(C)C)C3(CC3)C2)cc([C@H](C)C2CC2)c1O [Compound A18]
Minimal effective anesthetic dose (SD rats [1]; [8]): B (5 mg/kg<B≤10 mg/kg) | Onset time (SD rats [1]; [8]): 0.23 to 0.98 min | Righting Reflex Duration (SD rats [1]; [8]): 3.02 to 19.25 min | Sedation Duration (SD rats [1]; [8]): 16.47 to 35.57 min

CCOC(=O)C(C1CC1)N1CCN(c2cc(C(C)C)c(O)c([C@H](C)C3CC3)c2)CC1 (stereo partly shown) [Compound A26]
Solubility [3]: A (A: Water volume used is less than 0.1 mL) | Minimal effective anesthetic dose (SD rats [1]; [8]): A (A≤5 mg/kg) | Onset time (SD rats [1]; [8]): 0.42 to 0.43 min | Righting Reflex Duration (SD rats [1]; [8]): 7.03 to 10.48 min | Sedation Duration (SD rats [1]; [8]): 14.75 to 21.28 min

CC(C)c1cc(N2CCN([C@@H](C)C(=O)OC(C)(C)C)CC2)cc([C@H](C)C2CC2)c1O [Compound A19S]
Minimal effective anesthetic dose (SD rats [1]; [8]): B (5 mg/kg<B≤10 mg/kg) | Onset time (SD rats [1]; [8]): 0.70 to 0.98 min | Righting Reflex Duration (SD rats [1]; [8]): 2.21 to 5.57 min | Sedation Duration (SD rats [1]; [8]): 14.55 to 21.30 min

CC(C)c1cc(N2CCN(CCO)CC2)cc([C@H](C)C2CC2)c1O [Compound A7]
Solubility [3]: B (B: Water volume used is greater than or equal to 0.1 mL and less than 1.0 mL)

CC(C)c1cc(N2CCN([C@@H](C)C(=O)OC(C)(C)C)CC2)cc(C(C)C)c1O [Compound A21S]
Onset time (SD rats [1]; [9]): 0.25 to 0.42 min | Righting Reflex Duration (SD rats [1]; [9]): 12.02 to 22.80 min | Sedation Duration (SD rats [1]; [9]): 28.72 to 56.33 min | Minimal effective anesthetic dose (SD rats [1]; [7]): B (5 mg/kg<B≤10 mg/kg)

CC(C)c1cc(N2CCN(CC(=O)OC3COC3)CC2)cc([C@H](C)C2CC2)c1O [Compound A8]
Solubility [3]: B (B: Water volume used is greater than or equal to 0.1 mL and less than 1.0 mL)

CC[C@@H](C(=O)OC)N1CCN(c2cc(C(C)C)c(O)c([C@H](C)C3CC3)c2)CC1 [Compound A22S]
Solubility [3]: A (A: Water volume used is less than 0.1 mL)

COC(=O)[C@@H](C)N1CCN(c2cc(C(C)C)c(O)c([C@H](C)C3CC3)c2)CC1 [Compound A6R]
Minimal effective anesthetic dose (SD rats [1]; [8]): A (A≤5 mg/kg) | Onset time (SD rats [1]; [8]): 0.15 to 0.70 min | Righting Reflex Duration (SD rats [1]; [8]): 1.72 to 3.82 min | Sedation Duration (SD rats [1]; [8]): 7.02 to 14.77 min

CC(C)c1cccc(C(C)C)c1O [Propofol, reference compound]
Approximate therapeutic index (SD rats [4]; vehicle Lipid emulsion): B (B when the index is <5 but ≥3) | water solubility [5]: insoluble in water

CC(C)c1cc(N2CCN(CC(=O)OC(C)(C)C)CC2)cc(C(C)C)c1O [Compound A17]
Onset time (SD rats [1]; [9]): 0.15 to 0.63 min | Righting Reflex Duration (SD rats [1]; [9]): 3.67 to 9.38 min | Sedation Duration (SD rats [1]; [9]): 24.42 to 35.32 min | Minimal effective anesthetic dose (SD rats [1]; [7]): A (A≤5 mg/kg)

COC(=O)CN1CCN(c2cc(C(C)C)c(O)c([C@H](C)C3CC3)c2)CC12CC2 [Compound A11]
Minimal effective anesthetic dose (SD rats [1]; [8]): C (10 mg/kg<C≤20 mg/kg) | Onset time (SD rats [1]; [8]): 0.12 to 0.27 min | Righting Reflex Duration (SD rats [1]; [8]): 0.68 to 3.12 min | Sedation Duration (SD rats [1]; [8]): 12.05 to 14.53 min

COC(=O)CC(=O)N1CCN(c2cc(C(C)C)c(O)c([C@H](C)C3CC3)c2)CC1 [Compound A3]
Solubility [3]: C (C: Water volume used is greater than or equal to 1.0 mL and less than 5.0 mL) | Onset time (SD rats [1]; [9]): 0.37 to 0.52 min | Righting Reflex Duration (SD rats [1]; [9]): 1.02 to 2.08 min | Sedation Duration (SD rats [1]; [9]): 6.65 to 8.50 min | Minimal effective anesthetic dose (SD rats [1]; [7]): C (10 mg/kg<C≤20 mg/kg) | Approximate therapeutic index (SD rats [4]; vehicle DMSO: A3 31.8%, A17 79.2%): B (B when the index is <5 but ≥3)

CC(C)c1cccc(C(C)C)c1OCOP(=O)(O)O [fospropofol disodium, Fospropofol disodium]
Onset time [6]: up to 2.9 minutes

CC(C)c1cc(N2CCN(CC(=O)OC(C)(C)C)CC2)cc([C@H](C)C2CC2)c1O [Compound A13]
Solubility [3]: A (A: Water volume used is less than 0.1 mL)

COC(=O)C(C(C)C)N1CCN(c2cc(C(C)C)c(O)c([C@H](C)C3CC3)c2)CC1 (stereo partly shown) [Compound A23]
Solubility [3]: C (C: Water volume used is greater than or equal to 1.0 mL and less than 5.0 mL) | Onset time (SD rats [1]; [9]): 0.20 to 0.22 min | Righting Reflex Duration (SD rats [1]; [9]): 4.93 to 15.08 min | Sedation Duration (SD rats [1]; [9]): 30.48 to 39.13 min | Minimal effective anesthetic dose (SD rats [1]; [7]): B (5 mg/kg<B≤10 mg/kg)

CC(C)c1cccc([C@H](C)C2CC2)c1O [ciprofol]
water solubility [5]: insoluble in water

CC(C)c1cc(N2CCN(CC(=O)OC(C)(C)C)CC2)cc([C@H](C)C2CC2)c1OCC(=O)OC(C)(C)C [Compound A14]
Onset time (SD rats [1]; [9]): 0.18 to 1.63 min | Righting Reflex Duration (SD rats [1]; [9]): 1.95 to 11.67 min | Sedation Duration (SD rats [1]; [9]): 19.40-28.45- min | Minimal effective anesthetic dose (SD rats [1]; [7]): C (10 mg/kg<C≤20 mg/kg)

CC(C)c1cc(N2CCN(CC(=O)O)CC2)cc([C@H](C)C2CC2)c1O [Compound A15]
Solubility [3]: A (A: Water volume used is less than 0.1 mL) | Minimal effective anesthetic dose (SD rats [1]; [8]): D (D>20 mg/kg)

COC(=O)C(C1CC1)N1CCN(c2cc(C(C)C)c(O)c([C@H](C)C3CC3)c2)CC1 (stereo partly shown) [Compound A24]
Solubility [3]: C (C: Water volume used is greater than or equal to 1.0 mL and less than 5.0 mL) | Onset time (SD rats [1]; [9]): 0.17 to 0.18 min | Righting Reflex Duration (SD rats [1]; [9]): 5.53 to 9.67 min | Sedation Duration (SD rats [1]; [9]): 19.33 to 38.80 min | Minimal effective anesthetic dose (SD rats [1]; [7]): B (5 mg/kg<B≤10 mg/kg)
